Earlier results in patent publication US20080280955A1, “Methods and compositions for screening and treatment of disorders of blood glucose regulation” (Perlegen Sciences, Inc., priority 2005, published 2008).

Columns and labels:
PPAR-alpha = target: T1, PPAR-alpha (Homo sapiens, UniProt Q07869)
T1 sequence (Q07869 1-468): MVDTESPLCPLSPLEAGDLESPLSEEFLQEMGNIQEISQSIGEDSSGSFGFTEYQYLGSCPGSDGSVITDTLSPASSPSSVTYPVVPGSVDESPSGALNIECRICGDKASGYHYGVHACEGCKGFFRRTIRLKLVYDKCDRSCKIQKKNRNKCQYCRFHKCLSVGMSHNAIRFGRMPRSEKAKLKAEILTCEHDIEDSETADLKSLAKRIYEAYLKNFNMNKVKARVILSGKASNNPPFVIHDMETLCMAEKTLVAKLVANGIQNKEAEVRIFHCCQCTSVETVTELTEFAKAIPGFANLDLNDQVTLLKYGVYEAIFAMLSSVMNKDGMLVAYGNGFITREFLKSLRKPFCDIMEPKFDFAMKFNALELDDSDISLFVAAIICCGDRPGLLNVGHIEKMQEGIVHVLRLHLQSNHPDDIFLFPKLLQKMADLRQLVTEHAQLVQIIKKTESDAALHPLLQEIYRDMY

PPAR-gamma = target: T2, PPAR-gamma (Homo sapiens, UniProt P37231); details: context-specific, depends on cell type
T2 sequence (P37231 1-505): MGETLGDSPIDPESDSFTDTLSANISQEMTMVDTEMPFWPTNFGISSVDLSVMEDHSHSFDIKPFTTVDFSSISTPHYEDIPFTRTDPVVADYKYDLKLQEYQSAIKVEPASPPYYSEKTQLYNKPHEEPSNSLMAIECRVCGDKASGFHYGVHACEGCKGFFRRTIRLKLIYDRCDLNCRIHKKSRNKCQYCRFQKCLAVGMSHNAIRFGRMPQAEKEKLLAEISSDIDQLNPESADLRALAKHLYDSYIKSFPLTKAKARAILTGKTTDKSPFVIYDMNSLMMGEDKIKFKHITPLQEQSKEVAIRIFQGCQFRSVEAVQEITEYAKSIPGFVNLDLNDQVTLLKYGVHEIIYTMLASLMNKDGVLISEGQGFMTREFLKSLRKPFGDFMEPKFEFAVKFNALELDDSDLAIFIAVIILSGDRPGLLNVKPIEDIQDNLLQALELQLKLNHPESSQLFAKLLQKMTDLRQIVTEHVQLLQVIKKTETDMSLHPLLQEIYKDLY

PPAR-delta = target: T3, PPAR-delta (Homo sapiens, UniProt Q03181)
T3 sequence (Q03181 1-441): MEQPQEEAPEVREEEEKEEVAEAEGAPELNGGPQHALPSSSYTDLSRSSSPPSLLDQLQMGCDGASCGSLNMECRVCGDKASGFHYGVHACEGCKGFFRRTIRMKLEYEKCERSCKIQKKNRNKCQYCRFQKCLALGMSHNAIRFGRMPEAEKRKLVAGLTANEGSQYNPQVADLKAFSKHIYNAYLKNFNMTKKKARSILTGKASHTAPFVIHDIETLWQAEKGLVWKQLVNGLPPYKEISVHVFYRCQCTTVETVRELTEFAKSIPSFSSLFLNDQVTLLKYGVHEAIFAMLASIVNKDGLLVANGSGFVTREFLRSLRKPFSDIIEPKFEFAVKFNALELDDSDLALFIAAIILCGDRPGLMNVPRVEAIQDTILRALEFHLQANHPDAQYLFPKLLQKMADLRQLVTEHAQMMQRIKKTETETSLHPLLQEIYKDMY

## O=C1NC(=O)C(Cc2ccc3cc(OCc4ccccc4F)ccc3c2)S1 (centres unmarked) [netoglitazone, 5-[{6-(2-fluorobenzyl)oxy-2-naphthyl}methyl]-2,4-thiazolidinedione]
Compared with pioglitazone and troglitazone
  efficacy in lowering plasma glucose, insulin, and triglyceride levels: more efficacious than pioglitazone and troglitazone
Compared with rosiglitazone
  potency relative to rosiglitazone: about three-fold
PPAR-alpha
  modulation of PPAR-alpha: appears to modulate
PPAR-gamma
  behaviour at PPAR-gamma: full agonist of PPAR-gamma and as a partial agonist or antagonist in others
PPAR-delta
  modulation of PPAR-delta: appears to modulate
